Assay results as given in paper PMC9779606, “Synthesis, Structural Characterization and Biological Activity Evaluation of Novel Cu(II) Complexes with 3-(trifluoromethyl)phenylthiourea Derivatives” (International Journal of Molecular Sciences, 2022).
Where two headings read alike, the source gives them in different places.

Tests used:
S. aureus 514 = experiment: MIC, hospital methicillin-resistant strains (MRSA); conditions: hospital MRSA strain S. aureus 514
S. aureus 567 = experiment: MIC, hospital methicillin-resistant strains (MRSA); conditions: hospital MRSA strain S. aureus 567
S. epidermidis 438 = experiment: MIC, hospital methicillin-resistant strains (MRSE); conditions: hospital MRSE strain S. epidermidis 438
[1] = system: S. epidermidis ATCC 12228; experiment: MIC, twofold serial microdilution, standard strains; conditions: S. epidermidis ATCC 12228, standard strain
S. aureus 572 = experiment: MIC, hospital methicillin-resistant strains (MRSA); conditions: hospital MRSA strain S. aureus 572
S. epidermidis 435 = experiment: MIC, hospital methicillin-resistant strains (MRSE); conditions: hospital MRSE strain S. epidermidis 435
S. epidermidis 432 = experiment: MIC, hospital methicillin-resistant strains (MRSE); conditions: hospital MRSE strain S. epidermidis 432
C. albicans ATCC 10231 = experiment: MIC, twofold serial microdilution, standard fungal strains; conditions: C. albicans ATCC 10231, standard strain
S. aureus ATCC 29213 = experiment: MIC, twofold serial microdilution, standard strains; conditions: S. aureus ATCC 29213, standard strain
[2] = system: SW620 (metastatic colon cancer); experiment: Cytotoxicity, MTT assay; assay type: cell-based, human; conditions: 72 h, mean SD
Protocol: (§1) MTT assay was performed as previously described. Experiments were repeated three times. […] Decreased relative MTT level means decreased cell viability.

[3] = system: PC3 (metastatic prostate cancer); experiment: Cytotoxicity, MTT assay; assay type: cell-based, human; conditions: 72 h, mean SD
Protocol: as §1

[4] = system: SW480 (primary colon cancer); experiment: Cytotoxicity, MTT assay; assay type: cell-based, human; conditions: 72 h, mean SD
Protocol: as §1

E. coli ATCC 25922 = experiment: MIC, twofold serial microdilution, standard strains; conditions: E. coli ATCC 25922, standard strain
S. epidermidis 436 = experiment: MIC, hospital methicillin-resistant strains (MRSE); conditions: hospital MRSE strain S. epidermidis 436
S. aureus 497 = experiment: MIC, hospital methicillin-resistant strains (MRSA); conditions: hospital MRSA strain S. aureus 497
S. aureus 498 = experiment: MIC, hospital methicillin-resistant strains (MRSA); conditions: hospital MRSA strain S. aureus 498
S. aureus 585 = experiment: MIC, hospital methicillin-resistant strains (MRSA); conditions: hospital MRSA strain S. aureus 585
[5] = system: Bacillus subtilis M45 (rec−); conditions: B. subtilis M45 (rec−); 256 µg per 9 mm disc (NOQ 2 µg per disc)
Protocol: (§2) DNA-damaging activity of compounds was tested by rec-assay using two genetically modified Bacillus subtilis strains: M45 (rec^−) and H17 (rec^+). Tested compounds were dissolved in DMSO, and 10 µL of each solution was dripped onto sterile cotton discs (Rotilabo) to load 256 µg of a given compound per 9 mm disc. Discs were placed on the surface Nutrient agar plates (Difco) inoculated with 100 µL of bacterial overnight culture and incubated for 24 h at 35 °C. After incubation, the growth inhibition zones were measured. […] Results of the genotoxicity test were estimated after 18 h of incubation at 35 °C by comparing the diameter of the inhibition zone on the B. subtilis M45 (rec^−) strain with that on the B. subtilis H17 (rec^+) strain.

[6] = system: Bacillus subtilis H17 (rec+); conditions: B. subtilis H17 (rec+); 256 µg per 9 mm disc (NOQ 2 µg per disc)
Protocol: as §2

[7] = system: methicillin-resistant Staphylococci (MRSA, MRSE); conditions: for MIC level against hospital staphylococcal strains: all hospital staphylococcal strains, Table 5
S. aureus NCTC 4163 = experiment: MIC, twofold serial microdilution, standard strains; conditions: S. aureus NCTC 4163, standard strain
[8] = system: M. tuberculosis Spec. 192; experiment: Tuberculostatic activity, Microplate Alamar Blue Assay (MABA); assay type: cell-based, Mycobacterium tuberculosis; conditions: M. tuberculosis Spec. 192, patient isolate fully sensitive to tuberculostatics, MABA
S. aureus 568 = experiment: MIC, hospital methicillin-resistant strains (MRSA); conditions: hospital MRSA strain S. aureus 568
M. tuberculosis H37Rv = experiment: Tuberculostatic activity, Microplate Alamar Blue Assay (MABA); assay type: cell-based, Mycobacterium tuberculosis; conditions: M. tuberculosis H37Rv, standard strain, MABA
S. epidermidis 437 = experiment: MIC, hospital methicillin-resistant strains (MRSE); conditions: hospital MRSE strain S. epidermidis 437
S. epidermidis 433 = experiment: MIC, hospital methicillin-resistant strains (MRSE); conditions: hospital MRSE strain S. epidermidis 433
S. aureus 496 = experiment: MIC, hospital methicillin-resistant strains (MRSA); conditions: hospital MRSA strain S. aureus 496
S. aureus ATCC 25923 = experiment: MIC, twofold serial microdilution, standard strains; conditions: S. aureus ATCC 25923, standard strain
S. epidermidis 423 = experiment: MIC, hospital methicillin-resistant strains (MRSE); conditions: hospital MRSE strain S. epidermidis 423
S. epidermidis 471 = experiment: MIC, hospital methicillin-resistant strains (MRSE); conditions: hospital MRSE strain S. epidermidis 471
[9] = system: S. epidermidis ATCC 35984; experiment: MIC, twofold serial microdilution, standard strains; conditions: S. epidermidis ATCC 35984, standard strain

Compound: CC(NC(=S)[N-]c1cccc(C(F)(F)F)c1)c1ccccc1.CC(NC(=S)[N-]c1cccc(C(F)(F)F)c1)c1ccccc1.[Cu+2] (racemic) [Cu2, Copper(II) Complex with 1-(1-phenylethyl)-3-[3-(trifluoromethyl)phenyl]thiourea]
- MIC (S. aureus 514): 16 µg/mL
- MIC (S. aureus 567): 8 µg/mL
- MIC (S. epidermidis 438): 16 µg/mL
- MIC [1]: 32 µg/mL
- MIC (S. aureus 572): 16 µg/mL
- MIC (S. epidermidis 435): 16 µg/mL
- MIC (S. epidermidis 432): 16 µg/mL
- MIC (C. albicans ATCC 10231): 128 µg/mL
- MIC (S. aureus ATCC 29213): 32 µg/mL
- IC50 [2]: 23.3 µM
- IC50 [3]: 89.7 ± 1.9 µM
- IC50 [4]: 41.6 ± 4.3 µM
- MIC (E. coli ATCC 25922): ≥256 µg/mL
- MIC (S. epidermidis 436): 16 µg/mL
- MIC (S. aureus 497): 16 µg/mL
- MIC (S. aureus 498): 8 µg/mL
- MIC (S. aureus 585): 8 µg/mL
- Genotoxic activity, inhibition zone diameter, M45 [5]: 16 mm
- Genotoxic activity, inhibition zone diameter, H17 [6]: 16 mm
- MIC level against hospital staphylococcal strains [7]: 8 to 128 µg/mL
- MIC (S. aureus NCTC 4163): 32 µg/mL
- MIC [8]: 8 µg/mL
- MIC (S. aureus 568): 8 µg/mL
- MIC (M. tuberculosis H37Rv): 8 µg/mL
- MIC (S. epidermidis 437): 16 µg/mL
- MIC (S. epidermidis 433): 16 µg/mL
- MIC (S. aureus 496): 16 µg/mL
- MIC (S. aureus ATCC 25923): 32 µg/mL
- MIC (S. epidermidis 423): 16 µg/mL
- MIC (S. epidermidis 471): 16 µg/mL
- MIC [9]: 16 µg/mL

Compound: O.O=[N+]([O-])c1cc(NC(=S)[N-]c2cccc(C(F)(F)F)c2)ccc1Cl.O=[N+]([O-])c1cc(NC(=S)[N-]c2cccc(C(F)(F)F)c2)ccc1Cl.[Cu+2] [Cu5, Copper(II) Complex with 1-(4-chloro-3-nitrophenyl)-3-[3-(trifluoromethyl)phenyl]thiourea]
- MIC (S. aureus 514): 2 µg/mL
- MIC (S. aureus 567): 2 µg/mL
- MIC (S. epidermidis 438): 2 µg/mL
- MIC [1]: 4 µg/mL
- MIC (S. aureus 572): 2 µg/mL
- MIC (S. epidermidis 435): 2 µg/mL
- MIC (S. epidermidis 432): 2 µg/mL
- MIC (C. albicans ATCC 10231): 128 µg/mL
- MIC (S. aureus ATCC 29213): 4 µg/mL
- IC50 [2]: 19.5 ± 1.3 µM
- IC50 [3]: 11.7 ± 0.9 µM
- IC50 [4]: 14.8 ± 1.2 µM
- MIC (E. coli ATCC 25922): 128 µg/mL
- MIC (S. epidermidis 436): 2 µg/mL
- MIC (S. aureus 497): 2 µg/mL
- MIC (S. aureus 498): 2 µg/mL
- MIC (S. aureus 585): 4 µg/mL
- Genotoxic activity, inhibition zone diameter, M45 [5]: 17 mm
- Genotoxic activity, inhibition zone diameter, H17 [6]: 18 mm
- MIC, methicillin-resistant Staphylococci ([7]; 19 strains (above half) of tested hospital Staphylococci): 2 µg/mL
- MIC, methicillin-resistant Staphylococci ([7]; S. aureus 537, 585, and 586 strains and half of the S. epidermidis isolates): 4 µg/mL
- MIC (S. aureus NCTC 4163): 4 µg/mL
- MIC [8]: 4 µg/mL
- MIC (S. aureus 568): 2 µg/mL
- MIC (M. tuberculosis H37Rv): 4 µg/mL
- MIC (S. epidermidis 437): 2 µg/mL
- MIC (S. epidermidis 433): 2 µg/mL
- MIC (S. aureus 496): 2 µg/mL
- MIC (S. aureus ATCC 25923): 4 µg/mL
- MIC (S. epidermidis 423): 4 µg/mL
- MIC (S. epidermidis 471): 4 µg/mL
- MIC [9]: 4 µg/mL

Compound: FC(F)(F)c1cccc([N-]C(=S)NCc2ccccc2)c1.FC(F)(F)c1cccc([N-]C(=S)NCc2ccccc2)c1.[Cu+2] [Cu3, Copper(II) Complex with 1-benzyl-3-[3-(trifluoromethyl)phenyl]thiourea]
- MIC (S. aureus 514): 64 µg/mL
- MIC (S. aureus 567): 64 µg/mL
- MIC (S. epidermidis 438): 64 µg/mL
- MIC [1]: 64 µg/mL
- MIC (S. aureus 572): 64 µg/mL
- MIC (S. epidermidis 435): 64 µg/mL
- MIC (S. epidermidis 432): 64 µg/mL
- MIC (C. albicans ATCC 10231): 32 µg/mL
- MIC (S. aureus ATCC 29213): 64 µg/mL
- IC50 [2]: 44.8 ± 5.6 µM
- IC50 [3]: 49.4 ± 2.4 µM
- IC50 [4]: 38.3 ± 3.1 µM
- MIC (E. coli ATCC 25922): ≥256 µg/mL
- MIC (S. epidermidis 436): 64 µg/mL
- MIC (S. aureus 497): 64 µg/mL
- MIC (S. aureus 498): 64 µg/mL
- MIC (S. aureus 585): 64 µg/mL
- Genotoxic activity, inhibition zone diameter, M45 [5]: 15 mm
- Genotoxic activity, inhibition zone diameter, H17 [6]: 15 mm
- MIC level against hospital staphylococcal strains [7]: 8 to 128 µg/mL
- MIC (S. aureus NCTC 4163): 64 µg/mL
- MIC [8]: 16 µg/mL
- MIC (S. aureus 568): 64 µg/mL
- MIC (M. tuberculosis H37Rv): 16 µg/mL
- MIC (S. epidermidis 437): 64 µg/mL
- MIC (S. epidermidis 433): 64 µg/mL
- MIC (S. aureus 496): 64 µg/mL
- MIC (S. aureus ATCC 25923): 64 µg/mL
- MIC (S. epidermidis 423): 64 µg/mL
- MIC (S. epidermidis 471): 64 µg/mL
- MIC [9]: 64 µg/mL

Compound: FC(F)(F)c1cccc([N-]C(=S)NCCc2ccccc2)c1.FC(F)(F)c1cccc([N-]C(=S)NCCc2ccccc2)c1.O.[Cu+2] [Cu1, Copper(II) Complex with 1-(2-phenylethyl)-3-[3-(trifluoromethyl)phenyl]thiourea]
- MIC (S. aureus 514): 64 µg/mL
- MIC (S. aureus 567): 64 µg/mL
- MIC (S. epidermidis 438): 128 µg/mL
- MIC [1]: 64 µg/mL
- MIC (S. aureus 572): 64 µg/mL
- MIC (S. epidermidis 435): 64 µg/mL
- MIC (S. epidermidis 432): 64 µg/mL
- MIC (C. albicans ATCC 10231): 128 µg/mL
- MIC (S. aureus ATCC 29213): 64 µg/mL
- IC50 [2]: 62.6 ± 4.9 µM
- IC50 [3]: 100 ± 3.6 µM
- IC50 [4]: 68.7 ± 3.4 µM
- MIC (E. coli ATCC 25922): ≥256 µg/mL
- MIC (S. epidermidis 436): 128 µg/mL
- MIC (S. aureus 497): 64 µg/mL
- MIC (S. aureus 498): 64 µg/mL
- MIC (S. aureus 585): 64 µg/mL
- Genotoxic activity, inhibition zone diameter, M45 [5]: 16 mm
- Genotoxic activity, inhibition zone diameter, H17 [6]: 16 mm
- MIC level against hospital staphylococcal strains [7]: 8 to 128 µg/mL
- MIC (S. aureus NCTC 4163): 64 µg/mL
- MIC [8]: 16 µg/mL
- MIC (S. aureus 568): 64 µg/mL
- MIC (M. tuberculosis H37Rv): 16 µg/mL
- MIC (S. epidermidis 437): 64 µg/mL
- MIC (S. epidermidis 433): 64 µg/mL
- MIC (S. aureus 496): 64 µg/mL
- MIC (S. aureus ATCC 25923): 64 µg/mL
- MIC (S. epidermidis 423): 64 µg/mL
- MIC (S. epidermidis 471): 64 µg/mL
- MIC [9]: 64 µg/mL
